According to ChEMBL document CHEMBL4190266, “Deconstruction - reconstruction approach to analyze the essential structural elements of tetrahydro-3-benzazepine-based antagonists of GluN2B subunit containing NMDA receptors” (Eur J Med Chem, 2017):

Legend:
[1] = Selectivity ratio of Ki for sigma2 receptor in rat liver membranes to Ki for recombinant human GluN1A/GluN2B receptor expressed in mouse L(tk-) cell membranes; type: cell-based
[2] = Selectivity ratio of Ki for sigma1 receptor in guinea pig brain cortex membranes to Ki for recombinant human GluN1A/GluN2B receptor expressed in mouse L(tk-) cell membranes; type: cell-based
[3] = Displacement of [3H]ifenprodil from recombinant human GluN1A/GluN2B receptor expressed in mouse L(tk-) cell membranes after 120 mins by microbeta scintillation counting method
[4] = target: T1, Sigma intracellular receptor 2 (Rattus norvegicus, UniProt Q5U3Y7); assay: Displacement of [3H]DTG from sigma2 receptor in rat liver membranes after 120 mins by microbeta scintillation counting method; type: cell membranes, Membrane
T1 sequence (Q5U3Y7 whole entry): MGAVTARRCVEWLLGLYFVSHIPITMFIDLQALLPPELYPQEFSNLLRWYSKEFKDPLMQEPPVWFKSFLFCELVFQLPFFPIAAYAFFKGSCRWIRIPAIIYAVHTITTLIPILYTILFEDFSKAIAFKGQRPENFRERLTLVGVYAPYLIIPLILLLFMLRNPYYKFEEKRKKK

[5] = target: Sigma non-opioid intracellular receptor 1 (Cavia porcellus, UniProt Q60492)
Sequence of Sigma non-opioid intracellular receptor 1 (Q60492 whole entry): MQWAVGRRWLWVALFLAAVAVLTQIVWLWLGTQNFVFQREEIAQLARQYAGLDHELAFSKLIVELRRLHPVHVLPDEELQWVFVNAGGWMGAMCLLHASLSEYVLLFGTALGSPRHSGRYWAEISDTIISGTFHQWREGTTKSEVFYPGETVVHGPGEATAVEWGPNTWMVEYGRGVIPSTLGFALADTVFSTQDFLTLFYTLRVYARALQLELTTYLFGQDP
Description: Displacement of [3H]-(+)-pentazocine from sigma1 receptor in guinea pig brain cortex membranes after 120 mins by microbeta scintillation counting method

[6] = n-Octanol-buffer distribution coefficient, log D of the compound at pH 7.4 by mass spectrometry based shake flask method; type: physicochemical
[7] = species on record: Homo sapiens; assay: Antagonist activity at glutamate/glycine-stimulated recombinant human GluN1A/GluN2B receptor expressed in mouse L(tk-) cells assessed as protection against receptor overstimulation-induced excitotoxicity at 10 to 100 uM preincubated for 30 mins followed by glutamate/glycine stimulation measured after 6 hrs by LDH release assay relative to control; type: cell-based
[8] = Antagonist activity at GluN1A/GluN2A receptor (unknown origin) expressed in Xenopus laevis oocytes assessed as inhibition of glutamate/glycine-induced channel current at 1 uM at -70 mV holding potential by two electrode voltage clamp method relative to control; type: cell-based; details: Homo sapiens
[9] = Selectivity ratio of Ki for PCP binding site of NMDA receptor in pig brain cortex membranes to Ki for recombinant human GluN1A/GluN2B receptor expressed in mouse L(tk-) cell membranes

| Ki [4] [nM] | Ki [5] [nM] | logD [6] | inhibition [8] [%] | Structure (SMILES) | Ratio Ki [1] | Ratio Ki [2] | Ki [3] [nM] | inhibition [7] [%] | Ratio Ki [9] |
| --- | --- | --- | --- | --- | --- | --- | --- | --- | --- |
| 35 | 10 | 3.13 |  | c1ccc(CCCCN2CCc3ccccc3CC2)cc1 | 0.15 | 0.04 | 230 |  |  |
| 970 | > 10000 | 1.58 |  | Nc1ccc2c(c1)C(O)CN(CCCCc1ccccc1)CC2 (stereo not drawn) | 1 | > 10 | 1000 |  |  |
| 3200 | 1600 |  |  | OC1CN(CCc2ccccc2)CCc2ccccc21 (stereo not drawn) | 2 | 1 |  |  |  |
| 120 | 16 |  |  | c1ccc(-c2ccc(CN3CCc4ccccc4CC3)cc2)cc1 | 2 | 0.2 | 75 |  |  |
| 116 | 100 |  |  | O=[N+]([O-])c1ccc2c(c1)C(O)CN(CCCCCc1ccccc1)CC2 (stereo not drawn) | 0.5 | 0.4 | 240 |  |  |
|  |  |  |  | OC(CN1CCC(Cc2ccc(F)cc2)CC1)c1ccc(Cl)cc1 (stereo not drawn) [ELIPRODIL] |  |  | 13 |  |  |
| 4600 | 320 |  |  | O=[N+]([O-])c1ccc2c(c1)C(O)CN(Cc1ccccc1)CC2 (stereo not drawn) |  | < 0.3 | > 1000 |  |  |
| 24 | 360 |  | 4.8 | O=[N+]([O-])c1ccc2c(c1)C(O)CN(C1CCC(c3ccccc3)CC1)CC2 (mixture of isomers) | 2 | 23 | 16 | < 6 |  |
| 1400 | 800 |  |  | O=C(c1ccccc1)N1CCC(N2CCc3ccccc3C(O)C2)CC1 (stereo not drawn) | 2 | 0.9 | 890 |  |  |
| 55 | 82 |  | 0.8 | OC1CN(C2CCC(c3ccccc3)CC2)CCc2ccccc21 (mixture of isomers) | 25 | 37 | 2.2 | < 6 | > 4500 |
| 61 | 1100 |  |  | O=C(CCCN1CCc2ccccc2C(O)C1)c1ccc(F)cc1 (stereo not drawn) | 0.2 | 4 |  |  |  |
| 170 | 48 |  |  | c1ccc(CCCCCN2CCc3ccccc3CC2)cc1 | 1 | 0.4 | 110 |  |  |
|  |  |  | 87 | CC(C(O)c1ccc(O)cc1)N1CCC(Cc2ccccc2)CC1 (stereo not drawn) [IFENPRODIL] |  |  | 10 |  |  |
|  |  | 2.7 |  | OC1CN(CCCCc2ccccc2)CCc2ccccc21 (stereo not drawn) |  |  |  |  |  |
| 1000 | 1500 |  |  | O=[N+]([O-])c1ccc2c(c1)C(O)CN(CCCCOc1ccccc1)CC2 (stereo not drawn) | 1 | 2 | 770 |  |  |
| 220 | 621 | 3.82 |  | O=[N+]([O-])c1ccc2c(c1)C(O)CN(CCCCc1ccccc1)CC2 (stereo not drawn) | 0.7 | 2 | 300 |  |  |
| 1100 | > 10000 |  |  | COc1ccc(C(=O)CCCN2CCc3ccccc3C(O)C2)cc1 (stereo not drawn) |  |  | > 1000 |  |  |
| 34 | 3.5 |  | 13 | OC1CN(C2CCN(Cc3ccccc3)CC2)CCc2ccccc21 (stereo not drawn) | 6 | 0.6 | 6 | < 6 |  |
| 119 | 460 |  |  | OC1CN(CCCCCc2ccccc2)CCc2ccccc21 (stereo not drawn) | 2 | 7 | 67 |  |  |
| 760 | 230 |  |  | OC1CN(Cc2ccc(-c3ccccc3)cc2)CCc2ccccc21 (stereo not drawn) | 4 | 1 | 210 |  |  |
| 110 | 260 |  |  | Nc1ccc2c(c1)C(O)CN(CCCCCc1ccccc1)CC2 (stereo not drawn) | 0.9 | 2 | 130 |  |  |
| 280 | > 10000 |  |  | OC1CN(CCCCOc2ccccc2)CCc2ccccc21 (stereo not drawn) | 1 | > 41 | 250 |  |  |
| > 10000 | 1800 |  |  | O=[N+]([O-])c1ccc2c(c1)C(O)CN(CCc1ccccc1)CC2 (stereo not drawn) | 6 | 1 | 1600 |  |  |
|  |  | 1.67 |  | Oc1ccc2c(c1)CCN(CCCCc1ccccc1)CC2O (stereo not drawn) |  |  |  |  |  |
| 1400 | 2800 |  |  | O=[N+]([O-])c1ccc2c(c1)C(O)CN(Cc1ccc(-c3ccccc3)cc1F)CC2 (stereo not drawn) |  |  | > 1000 |  |  |
| 300 | 1300 |  |  | O=[N+]([O-])c1ccc2c(c1)C(O)CN(CCCc1ccccc1)CC2 (stereo not drawn) | 3 | 12 | 110 |  |  |
